What all share (assay type): in vivo
One series relates to Mythimna separata. Kind of series: Efficacy test against Mythimna separata (treated artificial feed). As to conditions: 1 μl of emulsion (I) (5% by mass active ingredient) mixed with 0.8 g artificial feed; second-instar larvae; 25° C.; after five days. An excerpt:
(§1) 5 parts by mass of a compound of the present invention, 93.6 parts by mass of dimethylformamide, and 1.4 parts by mass of polyoxyethylene alkyl aryl ether were mixed and dissolved to obtain an emulsion (1) containing 5% by mass of the active ingredient.
(§2) 93.6 parts by mass of dimethylformamide, and 1.4 parts by mass of polyoxyethylene alkyl aryl ether were mixed and dissolved to obtain an emulsion (II).
0.8 g of commercially-available artificial feed (Insect LFS, manufactured by Nosan Corporation) and 1 μl of the emulsion (I) were mixed well, and then 0.2 g of the mixture per treated area was packed into plastic test containers (each having a capacity of 1.4 ml) as test feeds.
Two second-instar larvae of Mythimna separata were left per treated area, and then the test containers were sealed with plastic covers. The test containers were placed in a thermostatic chamber at 25° C., and, after five days had passed therefrom, the mortality and the feed intake were measured. The test was repeated twice.
(§3) In addition, the test was conducted under the same conditions as described above, except that the emulsion (II) was used instead of the emulsion (I), and evaluated as a solvent control area.
The compounds A-2, A-3, A-4, A-9, A-10, A-11, A-15, and A-16 were subjected to an efficacy test against Mythimna separata. […] The mortality was calculated in accordance with the following equation. Mortality (%)=(Died insect number/Tested insect number)×100

For the next series, the system named is Spodoptera litura. Kind of series: Efficacy test against Spodoptera litura (cabbage leaf dip). As to conditions: foliar, 144 h, 125 ppm by mass, cabbage leaf immersed 30 seconds, second-instar larvae, 25° C., humidity 60%, after six days. Here is the method: as §1
The emulsion (I) was diluted with water such that the amount of the compound of the present invention became 125 ppm by mass. A cabbage leaf was immersed in the diluted solution for 30 seconds. The cabbage leaf was air-dried and then put in a petri dish, followed by leaving five second-instar larvae of Spodoptera litura therein. The petri dish was placed in a thermostatic chamber at a temperature of 25° C. and a humidity of 60%. After six days had passed from leaving the larvae, life or death was assessed and the mortality was calculated. The test was repeated twice.

The test system of another series is Helicoverpa armigera. Kind of series: Efficacy test against Helicoverpa armigera (cabbage leaf dip). The conditions noted are these: foliar, 144 h, 125 ppm by mass, cabbage leaf immersed 30 seconds, second-instar larvae, 25° C., humidity 60%, after six days.
The subject of the next series is Nilaparvata lugens. Kind of series: Efficacy test against Nilaparvata lugens (rice seedling dip). As to conditions: 240 h, 125 ppm by mass, rice seedling immersed 30 seconds, second-instar larvae, 25° C., humidity 65%, after ten days. Here is the method: as §1
The emulsion (I) was diluted with water such that the amount of the compound of the present invention became 125 ppm by mass. A rice seedling was immersed in the diluted solution for 30 seconds, air-dried, and then placed in a plastic case, followed by leaving five second-instar larvae of Nilaparvata lugens therein. The plastic case was placed in a thermostatic chamber at a temperature of 25° C. and a humidity of 65%. After ten days had passed therefrom, life or death was assessed and the mortality was calculated. The test was repeated twice.

The subject of the next series is Tetranychus urticae. Kind of series: Efficacy test against Tetranychus urticae (spray on kidney bean). The conditions noted are these: 125 ppm by mass sprayed on kidney bean; female adults removed after three days; living number counted ten days after spraying; 25° C., humidity 65%.
Description: as §1, §2
Five female adults of Tetranychus urticae were left on primary leaves of kidney bean planted in a 3-sun pot. The emulsion (I) was diluted with water such that the amount of the compound of the present invention became 125 ppm by mass. The diluted solution was sprayed on the kidney bean and evaluated as a treated area. The 3-sun pot was placed in a thermostatic chamber at a temperature of 25° C. and a humidity of 65%, and after three days had passed from spraying, the female adults of Tetranychus urticae were removed to leave only laid eggs remaining on the leaves. After ten days had passed from spraying, the number of living Tetranychus urticae was counted. The test was repeated twice.
as §3
The control ratio was calculated in accordance with the following equation. Control ratio (%)=100×[1−Nt/Nc] […]

The subject of another series is Aphis gossypii. Kind of series: Efficacy test against Aphis gossypii (spray on cucumber). As to conditions: 120 h, 125 ppm by mass sprayed on cucumber, first-instar larvae, 25° C., humidity 60%, after five days.
Description: as §1
Cucumber was sown in a 3-sun pot. After ten days had passed from germination, a female adult of Aphis gossypii was left on the cucumber. On the next day, laid first-instar larvae were left, and the female adult was removed. The emulsion (I) was diluted with water such that the amount of the compound of the present invention became 125 ppm by mass. The diluted solution was sprayed on the cucumber. Then, the cucumber was placed in a thermostatic chamber at a temperature of 25° C. and a humidity of 60%. After five days had passed therefrom, life or death of Aphis gossypii was assessed and the mortality was calculated.

The structures appear in SMILES notation.

`O=C([N-][n+]1ccccn1)c1ccc(-c2ccc(OC(F)(F)C(F)F)cc2)nc1` [Compound A-2]: the “mortality or feed intake relative to the feed intake at the solvent control area” value with Mythimna separata is recorded as 100% mortality of Mythimna separata or 10% or less of the feed intake.

With `O=C([N-][n+]1ccccn1)c1ccc(-c2ccc(OCC(F)(F)F)nc2)nc1` [Compound A-3], the “mortality or feed intake relative to the feed intake at the solvent control area” value in the series on Mythimna separata is given as 100% mortality of Mythimna separata or 10% or less of the feed intake.

One may read the mortality as the percentage killed. A higher mortality goes with fewer survivors. For `O=C([N-][n+]1cnn(CC(F)(F)F)c1)c1ccc(-c2ccc(OC(F)(F)C(F)F)cc2)c(Cl)c1` [Compound A-4], in the series with Spodoptera litura, the mortality at 125 ppm is ≥ 80%. Also, the “mortality or feed intake relative to the feed intake at the solvent control area” value in the series on Mythimna separata is reported as 100% mortality of Mythimna separata or 10% or less of the feed intake.

Turning to `Cn1cc[n+]([N-]C(=O)c2ccc(-c3ccc(OC(F)(F)C(F)F)cc3)cc2)c1` [Compound A-9], the mortality at 125 ppm is ≥ 80% in the series with Spodoptera litura and ≥ 90% with Helicoverpa armigera. For the same compound, the “mortality or feed intake relative to the feed intake at the solvent control area” value with Mythimna separata is on record as 100% mortality of Mythimna separata or 10% or less of the feed intake.

For the compound `O=C([N-][n+]1ccsc1)c1ccc(-c2ccc(OC(F)(F)C(F)F)cc2)cc1` [Compound A-10], the “mortality or feed intake relative to the feed intake at the solvent control area” value in the series with Mythimna separata is 100% mortality of Mythimna separata or 10% or less of the feed intake.

As for `O=C([N-][n+]1ccccn1)c1ccc(-c2ccc(OC(F)(F)C(F)F)cc2)cc1` [Compound A-11], the mortality at 125 ppm in the series with Spodoptera litura and with Nilaparvata lugens was ≥ 80% each time. The “mortality or feed intake relative to the feed intake at the solvent control area” value in the series with Mythimna separata is 100% mortality of Mythimna separata or 10% or less of the feed intake.

In the case of `Cn1cc[n+]([N-]C(=O)c2ccc(-c3ccc(OC(F)(F)F)cc3)cc2)c1` [Compound A-13], in the series on Spodoptera litura, the mortality at 125 ppm is ≥ 80%.

Consider `O=C([N-][n+]1ccncc1)c1ccc(-c2ccc(OC(F)(F)F)cc2)cc1` [Compound A-15], for which the “mortality or feed intake relative to the feed intake at the solvent control area” value in the series with Mythimna separata was 100% mortality of Mythimna separata or 10% or less of the feed intake.

For `O=C([N-][n+]1ccccn1)c1ccc(-c2ccc(OC(F)(F)F)cc2)cc1` [Compound A-16], in the series with Mythimna separata, the “mortality or feed intake relative to the feed intake at the solvent control area” value was 100% mortality of Mythimna separata or 10% or less of the feed intake.

Turning to `O=C([N-][n+]1ccccn1)c1ccc(C(F)(F)F)cc1` [Compound A-18], the control ratio in the series on Tetranychus urticae is reported as ≥ 90%.

As for `O=C([N-][n+]1ccncc1)c1ccc(C(F)(F)F)cc1` [Compound A-19], the mortality at 125 ppm with Aphis gossypii was ≥ 80%.

Source of the values: patent US12384749B2, “Onium salt of nitrogen-containing heteroaryl compound and pest control agent” (Nippon Soda Co., Ltd., priority 2019, dated 2025).
